Reference: US4818760A, “Derivatives of pyridylsulfinyl(benz-or thieno-)imidazoles and their use as gastric secretion inhibiting substances” (Chemie Linz Aktiengesellschaft, priority 1986, dated 1989)

Molecular target: H^+ /K^+ -ATPase (Homo sapiens, UniProt P20648)
Test: Inhibition of H^+ /K^+ -ATPase (comparison experiment / enzyme test)
Format: biochemical

Chain of H^+ /K^+ -ATPase (P20648 whole entry): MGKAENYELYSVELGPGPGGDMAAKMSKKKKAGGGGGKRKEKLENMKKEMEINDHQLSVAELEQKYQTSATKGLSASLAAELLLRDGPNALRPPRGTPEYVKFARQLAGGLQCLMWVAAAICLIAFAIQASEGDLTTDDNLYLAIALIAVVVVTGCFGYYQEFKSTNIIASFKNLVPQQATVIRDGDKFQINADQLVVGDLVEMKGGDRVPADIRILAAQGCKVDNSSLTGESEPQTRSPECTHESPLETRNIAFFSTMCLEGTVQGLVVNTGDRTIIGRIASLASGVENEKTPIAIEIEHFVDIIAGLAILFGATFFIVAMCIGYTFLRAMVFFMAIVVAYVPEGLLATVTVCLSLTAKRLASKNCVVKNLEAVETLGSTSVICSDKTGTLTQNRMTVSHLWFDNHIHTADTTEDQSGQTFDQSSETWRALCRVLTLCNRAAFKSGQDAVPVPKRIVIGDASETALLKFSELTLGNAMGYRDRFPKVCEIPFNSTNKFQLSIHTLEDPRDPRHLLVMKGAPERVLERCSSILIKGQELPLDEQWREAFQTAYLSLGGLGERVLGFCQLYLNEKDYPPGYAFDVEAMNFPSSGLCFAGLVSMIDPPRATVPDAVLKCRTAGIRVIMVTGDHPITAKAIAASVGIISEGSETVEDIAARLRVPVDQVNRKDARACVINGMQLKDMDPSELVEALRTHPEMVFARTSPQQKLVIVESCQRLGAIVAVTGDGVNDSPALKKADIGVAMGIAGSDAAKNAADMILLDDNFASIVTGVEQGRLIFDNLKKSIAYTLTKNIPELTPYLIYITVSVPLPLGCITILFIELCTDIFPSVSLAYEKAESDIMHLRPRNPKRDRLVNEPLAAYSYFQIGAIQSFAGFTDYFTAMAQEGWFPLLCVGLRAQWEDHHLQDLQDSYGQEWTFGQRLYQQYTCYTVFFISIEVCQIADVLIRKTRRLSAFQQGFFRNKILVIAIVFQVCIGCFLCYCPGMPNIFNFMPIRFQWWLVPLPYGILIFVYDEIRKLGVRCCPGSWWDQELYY
Chain of H^+ /K^+ -ATPase (P51164 whole entry partner): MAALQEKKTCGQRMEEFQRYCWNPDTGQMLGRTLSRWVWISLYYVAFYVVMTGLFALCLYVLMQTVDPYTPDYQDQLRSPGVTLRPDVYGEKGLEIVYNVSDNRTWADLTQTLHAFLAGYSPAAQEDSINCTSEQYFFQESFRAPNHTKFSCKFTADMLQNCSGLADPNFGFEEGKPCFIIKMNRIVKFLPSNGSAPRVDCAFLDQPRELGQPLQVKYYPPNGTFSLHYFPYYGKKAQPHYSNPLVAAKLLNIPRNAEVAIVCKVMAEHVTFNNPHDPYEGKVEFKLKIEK

In the case of `COc1c(C)cnc(C[S+]([O-])c2nc3cc(C4=NCCO4)ccc3[nH]2)c1C` (centres unmarked) [Substance A, 5-(4,5-dihydro-2-oxazolyl)-2-((3,5-dimethyl-4-methoxy-2-pyridyl)methylsulfinyl)-1H-benzimidazole], the IC50 is reported as 5.3 µM and the “inhibition of H^+ /K^+ -ATPase relative to omeprazole” value (comparison with omeprazole) is reported as “approximately five times greater than does omeprazole”.
